Measurements taken from patent US7235577B1 (priority 2000, dated 2007).

Key:
[1] = target: human cytochrome P450 3A4 (CYP3A4) (Homo sapiens, UniProt P08684); test: in vitro
Description: (§1) The test substances shown in Table 8 were evaluated for their inhibitory effect on the catalytic activity of human cytochrome P450 enzyme. Cytochrome P450 3A4 (CYP3A4) is involved in many drug-drug interactions and in many other pathways in the body including the catabolism of steroids and xenobiotics. Inhibition of this enzyme was measured in 96 well plates with 7-benzyloxy-4-trifluoro-methylcoumarin (BFC) as the substrate and cDNA-derived enzymes in microsomes prepared from baculovirus-infected insect cells.
(§2) The inhibition study consisted of the determination of inhibition by the test substance on CYP3A4 catalytic activity. […] The compounds were prepared as 10 mM stock solutions in acetonitrile. Metabolism of the model substrate was assayed by the production of 7-hydroxy-4-trifluoromethylcoumarin metabolite. The metabolite was detected by fluorescence.
(§3) Table 10 below provides a list of the name of enzymes examined, the catalog number of the microsomes used as a source of the enzyme, the concentration of the model substrate used, the amount of enzyme used, the final buffer concentration, and the positive control compound.
(§4) Assays were conducted in 96 well microtiter plates. The BFC substrate was initially prepared in acetonitrile. […] Six wells were used for one test. […] For the positive controls, 12 wells in a row were used for one test. The positive control inhibitor/enzyme combination was examined in duplicate rows. Wells 1 to 8 contained serial 1:3 dilutions of the inhibitors. The highest inhibitor concentration were as described in the table above. Wells 9 and 10 contained no inhibitor and wells 11 and 12 were blanks for background fluorescence (stop solution added before the enzyme).
(§5) After buffer, cofactors and inhibitor addition, the plates were pre-warmed to 37° C. Incubations were initiated by the addition of pre-warmed enzyme and substrate. The final cofactor concentrations were 1.3 mM NADP, 3.3 mM glucose-6-phosphate and 0.4 U/ml glucose-6-phosphate dehydrogenase. The final incubation volume was 0.2 ml. Incubations were carried out for 30 minutes [CYP3A4 (BFC)] and stopped by the addition of 0.075 ml of 80% acetonitrile-20% 0.5M Tris. Fluorescence per well was measured using a BMG FLUOstar fluorescence plate reader. The BFC metabolite 7-hydroxy-4-trifluoromethyl-coumarin was measured using an excitation wavelength of 410 nm and emission wavelength of 538 nm.

CYP3A4 = CYP3A4 (Homo sapiens, UniProt P08684); test: in vitro; conditions: human
Chain of CYP3A4 (P08684 whole entry): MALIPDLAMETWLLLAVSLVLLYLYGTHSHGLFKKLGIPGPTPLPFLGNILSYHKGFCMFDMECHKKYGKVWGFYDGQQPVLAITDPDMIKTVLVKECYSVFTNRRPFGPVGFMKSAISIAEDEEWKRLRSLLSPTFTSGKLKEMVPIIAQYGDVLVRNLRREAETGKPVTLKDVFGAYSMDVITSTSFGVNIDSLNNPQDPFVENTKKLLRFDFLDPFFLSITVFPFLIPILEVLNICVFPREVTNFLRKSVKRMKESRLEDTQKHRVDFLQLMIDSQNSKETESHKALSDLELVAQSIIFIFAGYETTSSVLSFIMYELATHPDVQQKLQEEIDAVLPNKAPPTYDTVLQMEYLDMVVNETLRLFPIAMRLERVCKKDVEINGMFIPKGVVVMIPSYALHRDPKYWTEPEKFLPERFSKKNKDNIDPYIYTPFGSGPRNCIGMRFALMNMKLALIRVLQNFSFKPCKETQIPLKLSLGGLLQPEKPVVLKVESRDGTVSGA
Description: as §1, §2, §3, §4, §5

mKv3.1 = target: T1, mKv3.1 (Mus musculus, UniProt P15388); test: Selectivity patch clamp, L929 cells expressing mKv3.1; type: cell-based
T1 construct: expressed in transfected cells; host or cells: L929
T1 sequence (P15388 whole entry): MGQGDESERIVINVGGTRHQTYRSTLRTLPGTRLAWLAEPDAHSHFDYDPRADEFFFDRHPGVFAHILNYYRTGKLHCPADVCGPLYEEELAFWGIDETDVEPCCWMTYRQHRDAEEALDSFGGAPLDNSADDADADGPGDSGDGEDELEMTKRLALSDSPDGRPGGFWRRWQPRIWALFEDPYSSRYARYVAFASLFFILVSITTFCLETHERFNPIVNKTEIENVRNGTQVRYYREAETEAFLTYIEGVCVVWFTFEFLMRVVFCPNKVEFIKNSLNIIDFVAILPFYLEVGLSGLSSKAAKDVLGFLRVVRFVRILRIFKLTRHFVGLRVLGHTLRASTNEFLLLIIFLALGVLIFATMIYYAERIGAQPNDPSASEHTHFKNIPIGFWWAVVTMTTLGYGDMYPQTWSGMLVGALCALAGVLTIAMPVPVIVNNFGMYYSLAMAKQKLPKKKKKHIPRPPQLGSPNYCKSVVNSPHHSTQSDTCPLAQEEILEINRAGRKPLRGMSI
Description: (§6) L929 cells stably expressing mKv1.1, rKv1.2, mKv1.3, and mKv3.1 and MEL cells stably expressing hKv1.5 have been previously described (Grissmer 1994, Mol. Pharmacol. 45: 1227). hKv1.4 and rKv4.2 were stably expressed in LTK (HK1–7). Channel expression was induced 8–12 h before the electrophysiological experiments by 4 μM dexamethasone (Sigma). HEK-293 cells stably expressing the skeletal muscle sodium channel hSkM1 (SCN4A) were generated in the laboratory of Dr. F. Lehmann-Horn. HEK-293 cells stably expressing hSloα were obtained from Dr. Andrew Tinker (Center for Clinical Pharmacology, University College London). L929, MEL, LTK and HEK cells were maintained in DMEM containing 10% heat-inactivated fetal calf serum (Summit Biotechnology, Fort Collins, Colo.) and 250 μg/ml G418 (Life Technologies, Inc.). Rat basophilic leukemia (RBL) cells were maintained in Eagle's minimum essential medium with 2 mM L-glutamine and 10% fetal calf serum. CHO cell were maintained in F12K media (ATCC). Human leukemic Jurkat E6–1 cells were cultured in RPMI 1640 supplemented with 10% fetal calf serum and 1 mM L-glutamine. T84 cells were maintained in a 1:1 mixture of Ham's F12 medium and DMEM with 2.5 mM L-glutamine and 10% fetal calf serum.
(§7) Recordings from the Jurkat SKCa channel were made in K^+ aspartate Ringer (Na^+ was replaced by K^+) with the same internal pipette solution. […]

HSKM1 = target: T2, HSKM1 (Homo sapiens, UniProt P35499); test: Selectivity patch clamp, HEK-293 cells expressing skeletal muscle sodium channel hSkM1 (SCN4A); type: cell-based
T2 construct: expressed in transfected cells; host or cells: HEK-293
T2 sequence (P35499 whole entry): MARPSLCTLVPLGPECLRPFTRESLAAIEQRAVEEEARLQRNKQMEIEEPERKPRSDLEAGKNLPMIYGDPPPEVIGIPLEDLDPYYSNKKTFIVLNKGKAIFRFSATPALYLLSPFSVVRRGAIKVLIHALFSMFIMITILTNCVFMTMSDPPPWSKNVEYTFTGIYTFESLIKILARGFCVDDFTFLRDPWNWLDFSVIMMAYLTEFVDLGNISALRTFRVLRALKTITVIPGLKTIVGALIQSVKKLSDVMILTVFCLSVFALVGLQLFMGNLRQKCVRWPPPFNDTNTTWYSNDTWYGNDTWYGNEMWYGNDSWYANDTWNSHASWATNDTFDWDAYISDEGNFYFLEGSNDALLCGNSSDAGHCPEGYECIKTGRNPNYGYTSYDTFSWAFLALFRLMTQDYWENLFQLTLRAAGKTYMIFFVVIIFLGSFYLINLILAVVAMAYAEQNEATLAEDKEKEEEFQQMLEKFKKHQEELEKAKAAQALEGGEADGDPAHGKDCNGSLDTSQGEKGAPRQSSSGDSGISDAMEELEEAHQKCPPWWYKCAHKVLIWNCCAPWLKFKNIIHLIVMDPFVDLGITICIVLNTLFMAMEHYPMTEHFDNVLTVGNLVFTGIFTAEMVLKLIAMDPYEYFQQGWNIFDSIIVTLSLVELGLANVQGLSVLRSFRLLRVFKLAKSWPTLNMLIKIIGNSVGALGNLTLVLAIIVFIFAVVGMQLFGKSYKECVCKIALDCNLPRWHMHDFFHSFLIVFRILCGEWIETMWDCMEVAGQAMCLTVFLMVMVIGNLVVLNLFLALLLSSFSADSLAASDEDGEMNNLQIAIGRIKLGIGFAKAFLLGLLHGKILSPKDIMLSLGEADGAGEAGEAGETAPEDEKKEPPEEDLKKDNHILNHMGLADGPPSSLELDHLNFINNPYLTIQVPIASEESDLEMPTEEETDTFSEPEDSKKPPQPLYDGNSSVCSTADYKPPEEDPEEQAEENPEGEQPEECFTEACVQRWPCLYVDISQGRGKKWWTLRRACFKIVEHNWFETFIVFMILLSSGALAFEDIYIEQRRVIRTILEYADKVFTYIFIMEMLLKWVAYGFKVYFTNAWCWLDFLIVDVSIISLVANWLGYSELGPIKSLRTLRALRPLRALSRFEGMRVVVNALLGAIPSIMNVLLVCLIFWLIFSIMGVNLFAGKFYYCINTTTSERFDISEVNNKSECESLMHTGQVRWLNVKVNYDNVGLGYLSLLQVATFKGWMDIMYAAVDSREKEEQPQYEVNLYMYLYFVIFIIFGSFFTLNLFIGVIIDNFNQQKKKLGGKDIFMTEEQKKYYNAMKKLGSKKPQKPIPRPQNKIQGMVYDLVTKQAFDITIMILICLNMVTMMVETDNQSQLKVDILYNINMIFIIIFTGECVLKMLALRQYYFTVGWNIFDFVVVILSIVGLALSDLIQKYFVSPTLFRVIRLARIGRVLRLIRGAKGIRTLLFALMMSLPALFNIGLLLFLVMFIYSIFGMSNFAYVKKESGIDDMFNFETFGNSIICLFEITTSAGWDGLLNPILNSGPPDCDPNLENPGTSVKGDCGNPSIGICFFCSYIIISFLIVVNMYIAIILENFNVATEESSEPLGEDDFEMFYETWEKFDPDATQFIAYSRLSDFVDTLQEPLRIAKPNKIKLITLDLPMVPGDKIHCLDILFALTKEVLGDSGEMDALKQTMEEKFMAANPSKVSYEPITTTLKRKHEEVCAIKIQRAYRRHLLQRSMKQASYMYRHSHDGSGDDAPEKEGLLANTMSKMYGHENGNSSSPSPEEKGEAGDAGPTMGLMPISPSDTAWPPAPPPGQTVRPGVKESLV
Description: as §6, §7

CHO cells = test: In vitro toxicity, propidium iodide uptake, 48 h; type: cell-based, Chinese hamster
Description: The in vitro toxicity was performed as follows.

BK (hSloα) = target: T3, BK (hSloα) (Homo sapiens, UniProt Q12791); test: Selectivity patch clamp, HEK-293 cells expressing hSloα (BKCa); type: cell-based
T3 construct: expressed in transfected cells; host or cells: HEK-293
T3 sequence (Q12791 whole entry): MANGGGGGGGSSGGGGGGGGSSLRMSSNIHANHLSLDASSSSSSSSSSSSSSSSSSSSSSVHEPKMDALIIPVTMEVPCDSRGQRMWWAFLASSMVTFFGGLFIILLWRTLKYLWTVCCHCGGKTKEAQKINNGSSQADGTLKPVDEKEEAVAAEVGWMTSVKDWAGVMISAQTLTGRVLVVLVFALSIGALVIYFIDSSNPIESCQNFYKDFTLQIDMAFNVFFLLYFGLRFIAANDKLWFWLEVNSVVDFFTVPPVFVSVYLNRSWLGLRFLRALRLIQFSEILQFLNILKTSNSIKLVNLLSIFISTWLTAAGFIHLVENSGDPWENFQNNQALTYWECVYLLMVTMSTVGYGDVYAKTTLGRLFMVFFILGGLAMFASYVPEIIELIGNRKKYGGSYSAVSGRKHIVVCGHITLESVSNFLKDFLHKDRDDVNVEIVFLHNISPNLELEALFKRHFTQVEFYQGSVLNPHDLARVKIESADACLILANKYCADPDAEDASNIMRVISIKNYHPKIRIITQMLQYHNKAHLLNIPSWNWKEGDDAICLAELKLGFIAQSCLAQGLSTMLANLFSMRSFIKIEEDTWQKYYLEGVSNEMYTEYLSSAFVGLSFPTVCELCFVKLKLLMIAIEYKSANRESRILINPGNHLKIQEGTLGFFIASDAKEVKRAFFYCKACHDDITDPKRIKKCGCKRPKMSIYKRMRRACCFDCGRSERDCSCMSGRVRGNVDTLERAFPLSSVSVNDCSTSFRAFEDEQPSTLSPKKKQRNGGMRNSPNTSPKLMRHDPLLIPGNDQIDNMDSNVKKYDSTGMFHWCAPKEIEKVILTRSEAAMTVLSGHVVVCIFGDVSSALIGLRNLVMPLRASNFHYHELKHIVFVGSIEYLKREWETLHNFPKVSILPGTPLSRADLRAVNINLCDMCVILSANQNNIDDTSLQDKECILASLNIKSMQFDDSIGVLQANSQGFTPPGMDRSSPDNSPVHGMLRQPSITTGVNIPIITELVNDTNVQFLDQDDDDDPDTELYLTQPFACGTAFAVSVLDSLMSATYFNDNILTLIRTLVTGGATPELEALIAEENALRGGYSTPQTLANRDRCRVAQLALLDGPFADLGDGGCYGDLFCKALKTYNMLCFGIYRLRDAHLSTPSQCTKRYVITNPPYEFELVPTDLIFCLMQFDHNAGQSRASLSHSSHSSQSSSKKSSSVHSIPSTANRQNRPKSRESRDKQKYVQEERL
Description: as §6, §7

Jurkat-CRAC = test: Selectivity patch clamp, Jurkat CRAC channels; type: cell-based, human; conditions: monovalent currents with Na+ as charge carrier
Description: as §6, §7

COS-7 chloride channel = test: Selectivity patch clamp, native chloride channels in COS-7 cells; type: cell-based, African green monkey; conditions: native chloride channel of COS-7 cells
Description: Electrophysiological experiments were carried out in the whole-cell configuration of the patch-clamp technique using an EPC-9 amplifier (HEKA Elektronik, Lambrecht Germany) interfaced to a computer running acquisition and analysis software (Pulse and Pulsfit; HEKA Elektronik). Pipettes were pulled from soft glass capillaries, coated with Sylgard (Dow-Corning, Midland, Mich.), and fire polished to resistances of 2.0–4.5 MΩ measured in the bath. COS-7 cells were trypsinized and plated on glass coverslips 3 h before measurement. […] To prevent activation of the native chloride channels in COS-7 cells an aspartate Ringer solution was used as an external solution (160 mM Na^+ aspartate, 4.5 mM KCl, 2 mM CaCl2, 1 mM MgCl2, 5 mM HEPES, adjusted to pH 7.4 with NaOH, with an osmolarity of 290–310 mosM). 200 ms voltage ramps from −120 mV to 40 mV every 10 s were used. The holding potential in all experiments was −80 mV. Series resistance compensation was not employed. The reduction of slope conductance at −80 mV was used to determine the Kd-value by fitting the values to the Hill equation with a Hill coefficient of unity.
as §7

mKv1.3 = target: T4, mKv1.3 (Mus musculus, UniProt P16390); test: Selectivity patch clamp, L929 cells expressing mKv1.3; type: cell-based
T4 construct: expressed in transfected cells; host or cells: L929
T4 sequence (P16390 whole entry): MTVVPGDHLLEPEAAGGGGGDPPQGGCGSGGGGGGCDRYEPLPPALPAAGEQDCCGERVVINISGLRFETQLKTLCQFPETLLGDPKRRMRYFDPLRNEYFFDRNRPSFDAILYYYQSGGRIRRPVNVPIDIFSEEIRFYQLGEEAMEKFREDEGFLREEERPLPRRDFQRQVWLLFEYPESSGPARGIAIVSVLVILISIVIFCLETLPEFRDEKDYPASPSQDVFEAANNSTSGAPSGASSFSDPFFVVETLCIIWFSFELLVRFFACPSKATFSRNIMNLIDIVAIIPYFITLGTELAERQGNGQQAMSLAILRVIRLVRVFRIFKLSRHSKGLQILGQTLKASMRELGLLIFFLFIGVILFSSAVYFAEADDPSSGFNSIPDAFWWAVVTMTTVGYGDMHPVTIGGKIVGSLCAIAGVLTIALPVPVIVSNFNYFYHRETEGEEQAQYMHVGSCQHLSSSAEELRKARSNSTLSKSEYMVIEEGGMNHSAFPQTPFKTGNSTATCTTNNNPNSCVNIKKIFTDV
Description: as §6, §7

Chain of human cytochrome P450 3A4 (CYP3A4) (P08684 whole entry): as the sequence (P08684 whole entry) above

Clc1ccccc1C(c1ccccc1)(c1ccccc1)n1cccn1 [Compound T34, 1-[(2-Chlorophenyl)diphenylmethyl]-1H-pyrazole]
EC50 for inhibition of CYP3A4 ([1]; T34 tested up to 10 μM): No inhibitory | Inhibition of CYP3A4 activity ([1]; up to 10 μM): does not inhibit the activity of CYP3A4 | inhibition at 30 min, 10 μM (CYP3A4): -77.5% | Kd (mKv3.1): 30 ± 5 µM | Kd (HSKM1): 8 ± 0.6 µM | percentage of dead cells (PI uptake) (CHO cells; 2 μM): 5.6% | percentage of dead cells (PI uptake) (CHO cells; 5 μM): 4.7% | Kd (BK (hSloα)): 25 ± 1.8 µM | Block of Jurkat-CRAC (Ca) (Jurkat-CRAC): no effect at 10 μM | Block of COS-7 (Cl) (COS-7 chloride channel): no effect at 10 μM | Kd (mKv1.3): 5 ± 0.35 µM
